Measurements from PubChem BioAssay AID720622 (The Scripps Research Institute Molecular Screening Center, 2013).

Test: T. brucei parasite growth inhibition, late-stage follow-up, counter-screen for T. brucei MetRS inhibitor project, absorbance (AID 720622)
Conditions: T. brucei bloodstream form 427 growth, AlamarBlue fluorescence, 48 h; run 1
For `COc1ccc(OCC(O)CNC(=O)Nc2ccc(Cl)cc2)cc1` (configuration not stated), the IC50 was > 10 µM. With `COc1ccc2[nH]c3nc(SCC(=O)Nc4ccc5c(c4)OCO5)nnc3c2c1` the IC50 was > 10 µM. In the case of `CC(=O)c1c[nH]c(C(=O)NCc2cccc(C(F)(F)F)c2)c1`, the IC50 is reported as > 10 µM. With `O=C(NCCc1nc2ccccc2[nH]1)c1ccc(Cl)c([N+](=O)[O-])c1` the IC50 was 4.97 µM. In the case of `O=C(CN1CCSC1=NCc1ccccc1)c1ccc(Cl)c(Cl)c1`, the IC50 is reported as > 10 µM. In the case of `Brc1cnc2nc(SCc3nc4ccccc4[nH]3)[nH]c2c1`, the IC50 is reported as > 10 µM. In the case of `O=C(NCc1nc2ccccc2[nH]1)C1=C[C@@H](c2csc3ccccc23)C[C@@H](OCCCCO)O1`, the IC50 is reported as > 10 µM. With `O=C(Cn1cc(C(=O)C(=O)N2CCOCC2)c2ccccc21)Nc1cccc(C(F)(F)F)c1` the IC50 was 3.53 µM. In the case of `CN(Cc1cc(Cl)cc(Cl)c1)[C@H]1C[C@H]2c3[nH]c4ccccc4c3CCN2C(=O)[C@H]1CO`, the IC50 is reported as 1.97 µM. In the case of `O=C(Cn1cnc2ccccc21)Nc1cccc([N+](=O)[O-])c1`, the IC50 is reported as > 10 µM. With `Clc1ccc(OCCSCc2nc3ccccc3[nH]2)cc1` the IC50 was > 10 µM. For `O=C(CC=NOCc1ccc([N+](=O)[O-])cc1)Nc1ccc(Br)cc1`, the IC50 was > 10 µM. In the case of `O=C1CC(SCc2nc3ccccc3[nH]2)C(=O)N1c1cccc(Cl)c1` (configuration not stated), the IC50 is reported as > 10 µM. Work on `COc1ccccc1NS(=O)(=O)c1cccc(NC(=O)Nc2ccccc2)c1` yielded an IC50 of 6.06 µM. Compound `CCOC(=O)N1CCC(Nc2c(Nc3ccc(F)cc3)c(=O)c2=O)CC1` has an IC50 of 8.72 µM. With `O=C(CC=NOCc1ccc([N+](=O)[O-])cc1)Nc1ccc(Cl)cc1` the IC50 was > 10 µM. In the case of `O=C(C[C@H]1C(=O)N(Cc2ccccc2)C[C@@H]1c1ccc(Br)cc1)Nc1ccc(Br)cc1`, the IC50 is reported as 4.03 µM. With `O=C(CCC(=O)Nc1cccc([N+](=O)[O-])c1)NN=Cc1cccs1` the IC50 was > 10 µM. For `Cc1[nH]c2ccc(Br)cc2c(=O)c1CN1CCCCCC1`, the IC50 was > 10 µM. Compound `O=C(NCc1nc2ccccc2[nH]1)C1=C[C@@H](c2ccc(Br)cc2)C[C@@H](OCc2ccc(CO)cc2)O1` has an IC50 of 4.38 µM. For `O=C(NCc1nc2ccccc2[nH]1)C1=C[C@H](c2ccc3c(c2)OCO3)C[C@H](OCCCCO)O1`, the IC50 was > 10 µM. Work on `O=C(NCc1nc2ccccc2[nH]1)C1=C[C@H](c2ccc(Br)cc2)C[C@H](OCc2ccc(CO)cc2)O1` yielded an IC50 of 9.73 µM. Work on `O=C(NCc1nc2ccccc2[nH]1)C1=C[C@@H](c2ccc(Br)cc2)C[C@@H](OCCCCO)O1` yielded an IC50 of 6.6 µM. In the case of `O=C(NCc1nc2ccccc2[nH]1)C1=C[C@H](C2CC2)C[C@H](OCc2ccc(CO)cc2)O1`, the IC50 is reported as > 10 µM. In the case of `CN1CC(=O)N2C(c3cccc([N+](=O)[O-])c3)c3[nH]c4ccccc4c3C[C@H]2C1=O` (some centres not stated), the IC50 is reported as > 10 µM. For `CN(CC(=O)Nc1ccc(Cl)cc1)C(=O)c1ccc(-n2cncn2)c([N+](=O)[O-])c1`, the IC50 was > 10 µM. With `CC(=O)c1ccc(N2CCN(C(=O)CCCn3c(=O)[nH]c4ccc(Br)cc4c3=O)CC2)cc1` the IC50 was > 10 µM. In the case of `O=C(NCc1nc2ccccc2[nH]1)C1=C[C@H](c2ccc(Br)cc2)C[C@H](OCCCCO)O1`, the IC50 is reported as > 10 µM. For `CC(C)(C)[C@H]1C=C(C(=O)NCc2nc3ccccc3[nH]2)O[C@@H](OCc2ccc(CO)cc2)C1`, the IC50 was > 10 µM. With `CC(CC(=O)Nc1cccc(Br)c1)=NNC(=O)c1ccc(O)cc1O` the IC50 was > 10 µM. Work on `O=C(NNC(=O)c1cc(-c2ccc(Cl)c(Cl)c2)nc2ccccc12)Nc1ccccc1` yielded an IC50 of 5.24 µM. For `Clc1ccc(-c2nnc(SCc3nc4ccccc4[nH]3)o2)c(Cl)c1`, the IC50 was > 10 µM. For `Cc1ccc(NC(=O)CN(C)C(=O)CCSc2ccc(F)cc2)cc1`, the IC50 was > 10 µM. In the case of `O=C(NCc1nc2ccccc2[nH]1)C1=C[C@@H](c2ccccc2)C[C@@H](OCc2ccc(CO)cc2)O1`, the IC50 is reported as > 10 µM. With `O=C(N/C(=C\c1cccnc1)c1nc2ccccc2[nH]1)c1cccc(Br)c1` the IC50 was > 10 µM. For `CCCCCCCCCC1NC(C(=O)O)Cc2c1[nH]c1ccccc21` (configuration not stated), the IC50 was > 10 µM. With `O=C(NCc1nc2ccccc2[nH]1)C1=C[C@@H](c2ccc3c(c2)OCO3)C[C@@H](OCCCCO)O1` the IC50 was > 10 µM. With `CC(C)OCCCN1CC(=O)N2C(c3cccc([N+](=O)[O-])c3)c3[nH]c4ccccc4c3C[C@H]2C1=O` (some centres not stated) the IC50 was > 10 µM. In the case of `COc1ccccc1-n1c(SCC(=O)Nc2ccc(Cl)cc2)nc(O)c(Cc2ccccc2)c1=O`, the IC50 is reported as > 10 µM. With `O=C(NCc1nc2ccccc2[nH]1)C1=C[C@H](c2csc3ccccc23)C[C@H](OCCCCO)O1` the IC50 was 3.96 µM. For `CCO[C@H]1OC(C(=O)NCc2nc3ccccc3[nH]2)=C[C@@H](c2ccc(Br)cc2)[C@@H]1CCCO`, the IC50 was > 10 µM. For `O=C(NNC(=O)c1ccc(-n2cncn2)c([N+](=O)[O-])c1)c1ccc(Cl)cc1`, the IC50 was > 10 µM. With `O=C(Nc1ccc(F)c(Cl)c1)C1CC(=O)n2c(nc3ccccc32)N1` (configuration not stated) the IC50 was > 10 µM. In the case of `O=C1CC(N(CCc2ccccc2)C(=S)Nc2ccccc2)C(=O)N1c1ccc(Br)cc1` (configuration not stated), the IC50 is reported as 1.95 µM. With `COc1cccc(NC(=O)CSc2nnc3c(n2)[nH]c2ccc(C)cc23)c1` the IC50 was > 10 µM. With `COc1ccc(CNC(=O)CSc2nnc3c(n2)[nH]c2ccc(F)cc23)cc1` the IC50 was > 10 µM. In the case of `CCO[C@@H]1OC(C(=O)NCc2nc3ccccc3[nH]2)=C[C@H](c2ccc(Br)cc2)[C@H]1CCCO`, the IC50 is reported as > 10 µM. With `C[C@H](O)[C@@H]1C(=O)N2CCc3c([nH]c4ccccc34)[C@@H]2C[C@@H]1N(C)Cc1ccc2c(c1)OCO2` the IC50 was > 10 µM. With `O=C1[C@@H]2Cc3c([nH]c4ccccc34)C(c3cccc([N+](=O)[O-])c3)N2C(=O)CN1CCCO` (some centres not stated) the IC50 was > 10 µM. For `O=C(NCc1nc2ccccc2[nH]1)C1=C[C@@H](C2CC2)C[C@@H](OCc2ccc(CO)cc2)O1`, the IC50 was > 10 µM. For `Oc1c(Cl)cc(Cl)cc1CNc1nc2ccccc2[nH]1`, the IC50 was > 10 µM. For `O=C(CC(=O)Nc1cccc(Cl)c1)NN=Cc1ccccc1`, the IC50 was > 10 µM. In the case of `CC(C)(C)[C@@H]1C=C(C(=O)NCc2nc3ccccc3[nH]2)O[C@H](OCc2ccc(CO)cc2)C1`, the IC50 is reported as > 10 µM. In the case of `O=C(NCc1nc2ccccc2[nH]1)C1=C[C@H](c2ccccc2)C[C@H](OCc2ccc(CO)cc2)O1`, the IC50 is reported as > 10 µM.

Same assay, conditions: T. brucei bloodstream form 427 growth, AlamarBlue fluorescence, 48 h; run 2
For `O=C(Cn1cc(C(=O)C(=O)N2CCOCC2)c2ccccc21)Nc1cccc(C(F)(F)F)c1`, the IC50 was 1.8 µM. `CN(Cc1cc(Cl)cc(Cl)c1)[C@H]1C[C@H]2c3[nH]c4ccccc4c3CCN2C(=O)[C@H]1CO` showed an IC50 of 2.62 µM. With `O=C1CC(N(CCc2ccccc2)C(=S)Nc2ccccc2)C(=O)N1c1ccc(Br)cc1` (configuration not stated) the IC50 was 2.74 µM.
